Results published in paper PMC9468151, “Identification of a binding site on soluble RANKL that can be targeted to inhibit soluble RANK-RANKL interactions and treat osteoporosis” (Nature Communications, 2022).
Values joined by “and” are separate entries in the source; they are usually repeats but may differ in a detail not shown here. Identical values can stand only once.

Tests used:
OVX rats = test: Osteoporosis therapeutic study in OVX rats (micro-CT); format: in vivo, rat
Procedure: Female SD rats or C57BL/6 mice were cared until they grown up to 6 months old or 10 weeks old, respectively. Then we subjected them to either bilateral ovariectomy or sham operation after anesthesia with 10% chloral hydrate (0.3 mL/100 g). Then all the rats or mice were intramuscular injected of penicillin to prevent infection in the first week of surgery. For rat experiments, after 12 weeks of operation, 3 rats from sham-operated or ovariectomized groups were random selected to determine bone mass by micro-CT imaging biopsy to verify successful produced bone loss(data unshown). Then the OVX rats were individually administrated with S3-15, S3, and S3-05 orally with (10 mg/kg/day) for another 12 weeks. For mouse experiments, after 4 weeks of surgery, the OVX mice were treated with 10 mg/kg/day S3-15 for another 4 weeks.
The weight of rats or mice were recorded every week in the treatment period. After treatment, the rats were harvested, the serum, heart, liver, spleen, lung, kidney, thymus, and femurs were all collected and subjected to subsequent analysis. The right femurs of rats or mice were cleaned excess soft tissue, fixed in 10% formalin, and processed them for microcomputed tomography (micro-CT) analysis. Left mice femurs were collected and excarnate for biomechanical strength testing. Mice peripheral blood were as well as collected for flow cytometry analyzing.
The right femurs of rats or mice were further analyzed with micro-CT on Inveon PET/CT (Siemens, Germany). We used micro-CT to scan the femur from the femoral head to the femoral condyle, using 19 μm resolution, 80 kV 500uA, 360 projection, 3000-6000 image threshold, full rotation cone beam. Three-dimensional reconstruction and histomorphometric analyses of trabecular bone were conducted with the IAW (Inveon analysis workstation) analysis software. The trabecular extended 1 mm (rat) or 0.5 mm (mice) proximally to the end of the distal growth plate over 2 mm (rats) or 1 mm (mice) toward the diaphysis was selected as the region of interest (ROI) for the analysis. The resulting two-dimensional images of trabecular bone in relative cross sections were shown in grayscale. Trabecular bone parameters were measured including bone volume/tissue volume (BV/TV), bone surface area/bone volume (BS/BV), trabecular number (Tb.N), trabecular thickness (Tb.Th), trabecular separation(Tb.Sp) and trabecular pattern factor(Tb.P.F).

[1] = tested on: sRANKL induced osteoclast differentiation; test: In vitro anti-osteoclastogenesis activity determination (TRAP staining); format: cell-based, mouse; conditions: replicates
Summary of the method: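 Mouse bone-marrow macrophages in 10 ng/mL M-CSF were stimulated with 100 ng/mL sRANKL plus compound at 9 concentrations, refreshed every 2 days, triplicate wells. After 5 days TRAP-stained osteoclasts were counted; inhibition normalised to untreated and unstimulated controls, IC50 by nonlinear regression.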

C3H10T1/2 = C3H10T1/2 proliferation and osteoblastic mineralization; format: cell-based, mouse; conditions: C3H10T1/2 or human primary osteoblasts, osteogenic differentiation medium
Procedure: Supplementary Fig.5. In Vitro Activity Evaluation and Signal Pathway Study of compound S3-15. a Western blot of PI3K and AKT phosphorylation in RAW264.7 cells treating with or without S315 and sRANKL at different point-in-time. b EC50 curve and representative OC microphotographs of mature osteoclasts apoptosis assay with S3-15. n=3 biological replicates for each concentration. EC50 values were calculated by GraphPad Prism 8 software. c EC50 curve and representative OC microphotographs of mature osteoclasts apoptosis assay with S3, S3-03 and S3-05. n=3 biological replicates for each concentration. EC50 values were calculated by GraphPad Prism […]
pits in dose-dependent manner (mouse BMMs). e Precursor osteoblasts C3H10T12 proliferation-promoting of S3, S3-05 and S3-15. f Osteoblastic mineralization after treatment with S3, S3-05 and S3-15. C3H10T12 cells were cultured in osteoblast induction differentiation medium with or without treatment for 14 days and determinate of calcium deposition in differentiated osteoblasts by Alizarin red staining. Error bars represent ± s.d. n=3. Statistical difference was determined by unpaired two-tailed Student’s t test. Significant difference p value is < 0.05. Scale […]
(1 picture or pasted object on this page, not shown here)

[2] = In vitro cytotoxicity assay (MTT); format: cell-based, mouse; conditions: mouse, RAW264.7 cells
Summary of the method: (§1)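 Log-phase cells were seeded at 6 × 10^3 per well and incubated 24 h, with viability read by MTT. Growth inhibition (%) was calculated from OD relative to vehicle wells. CC50 came from nonlinear regression curve fitting.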

RAW264.7 cells = test: In vitro cytotoxicity assay (MTT); format: cell-based, mouse
Summary of the method: as §1

[3] = OVX rats, S3-15 oral 10 mg/kg/day 12 weeks, individual animals, 10 mg/kg/day

## CC(=O)/C(=N\Nc1ccccc1C(=O)O)C(=O)Nc1ccccn1 [S3-15]
OVX rats; OVX rats, S3-15 oral 10 mg/kg/day 12 weeks, distal femur, individual animals, 10 mg/kg/day
  BV/TV: 0.6788 and 0.422 and 0.4058 and 0.5401 and 0.3909 and 0.3235 and 0.4349 and 0.3705 and 0.4806
OVX rats; [3]
  Tb.N: 6.402 1/mm and 4.855 1/mm and 5.594 1/mm and 4.923 1/mm and 3.924 1/mm and 4.525 1/mm and 4.231 1/mm and 4.365 1/mm and 4.683 1/mm
  Tb.Sp: 0.05016 mm and 0.1191 mm and 0.1062 mm and 0.09343 mm and 0.1553 mm and 0.1495 mm and 0.1335 mm and 0.1442 mm and 0.1109 mm
  Tb.Th: 0.05016 mm and 0.1191 mm and 0.1062 mm and 0.09343 mm and 0.1553 mm and 0.1495 mm and 0.1335 mm and 0.1442 mm and 0.1109 mm
OVX rats; oral 10 mg/kg/day, 12 weeks, in words
  BV/TV of OVX rats: increased
[1]; 0.003 μM
  OC inhibitory ratio, sRANKL induced (fig. 3c IC50 curve data): 7.9602 and 6.219 and 4.726
[1]; 0.01 μM
  OC inhibitory ratio, sRANKL induced (fig. 3c IC50 curve data): -4.229 and 6.965 and 4.975
[1]; 0.03 μM
  OC inhibitory ratio, sRANKL induced (fig. 3c IC50 curve data): 19.1542 and 29.1045 and 33.5821
[1]; 0.1 μM
  OC inhibitory ratio, sRANKL induced (fig. 3c IC50 curve data): 31.8408 and 36.5672 and 39.0547
[1]; 0.3 μM
  OC inhibitory ratio, sRANKL induced (fig. 3c IC50 curve data): 40.2985 and 51.7413 and 33.8308
[1]; 1 μM
  OC inhibitory ratio, sRANKL induced (fig. 3c IC50 curve data): 50.7463 and 58.209 and 52.4876
[1]; 3.3 μM
  OC inhibitory ratio, sRANKL induced (fig. 3c IC50 curve data): 76.6169 and 75.8706 and 78.607
[1]; 10 μM
  OC inhibitory ratio, sRANKL induced (fig. 3c IC50 curve data): 91.791 and 91.0448 and 90.2985
[1]; 33 μM
  OC inhibitory ratio, sRANKL induced (fig. 3c IC50 curve data): 99.005 (2×) and 98.5075
C3H10T1/2
  cell proliferation and mineralization: increase cell proliferation and mineralization
[2]; conc. 0.08 μM, read-out: cell viability relative to 0 μM (fig. S5e)
  viability at 24 h, 0.08 μM: 107%
[2]; conc. 10 μM, read-out: cell viability relative to 0 μM (fig. S5e)
  viability at 24 h, 10 μM: 137%
[2]; RAW264.7, MTT
  CC50 at 24 h: 62.5 µM
RAW264.7 cells; conc. 0.08 μM
  cell viability relative to 0 μM (fig. S5e): 111.614 and 102.001
RAW264.7 cells; conc. 0.28 μM
  cell viability relative to 0 μM (fig. S5e): 101.596 and 120.838 and 143.415
RAW264.7 cells; conc. 0.92 μM
  cell viability relative to 0 μM (fig. S5e): 144.954 and 160.091 and 138.541
RAW264.7 cells; conc. 3.03 μM
  cell viability relative to 0 μM (fig. S5e): 169.327 and 148.033 and 125.969
RAW264.7 cells; conc. 10 μM
  cell viability relative to 0 μM (fig. S5e): 154.703 and 140.336
